One test relates to human whole blood. As to the kind of experiment: Inhibition of IL-1β induced IL-6 production in whole blood. As to conditions: 100 pM IL-1β. Format: cell-based. On the procedure:
The inhibitory effect of IL-1R-I binding fusion proteins on IL-1β induced IL-6 production in whole blood from individual donors was measured.
Blood from healthy donors was collected 1-3 hours prior to treatment with the IL-1R-I binding fusion proteins (SEQ ID NO:1648-1649). Proteins (IL-1R-I binding fusion proteins or anakinra) were diluted to starting concentration of 500 nM in serum free RPMI (ThermoFisher Scientific, RPMI 1640 Medium, GlutaMAX™ Supplement, Cat. No.: 61870010) and subsequently serially diluted 1:3 in a ten-step dilution series resulting in a concentration range of 500 nM to 25 pM. The IL-1R-I binding fusion polypetides or anakinra were tested in presence of a challenge dose of 100 pM IL-1β. The blood was incubated for 21-23 hours with proteins, followed by harvesting of plasma. Harvested plasma was diluted 2× and IL-6 content was analyzed by using a human IL-6 kit (V-PLEX Human IL-6 Kit Human interleukin-6, MSD) according to manufacturer's recommendations.
IL-6 concentrations (pg/ml) were calculated using a standard curve (provided by the kit) and data was analyzed using XLfit and IC50 values were calculated from the concentration-response curves.

For test [1], the system named is Normal Human Dermal Fibroblasts (NHDF) cells. The experiment in a line: Inhibition of IL-1β induced IL-6 production in NHDF cells. The class given is cell-based. Conditions: 3.4 pM IL-1β.
Procedure: The inhibitory effect of IL-1R-I binding fusion proteins on IL-1β induced IL-6 production in Normal Human Dermal Fibroblasts (NHDF) cells was monitored.
Cells were seeded three days prior to treatment with proteins. […] Harvested medium was diluted 41× before IL-6 content was analyzed using a human IL-6 ELISA kit (R&D Systems) according to manufacturer's recommendations. Data was analyzed using XLfit and IC50 values were calculated from concentration-response curves.

With “Kineret: recombinant form of endogenous IL-1Ra denoted anakinra (Kineret)”, in the test on human whole blood, the “IL-1β induced IL-6 release in human whole blood” value is “reduced in a concentration-dependent manner”. The “IL-1β induced IL-6 release from NHDF cells” value in test [1] was “reduced in a concentration-dependent manner”.

For the origin of these results see patent publication US12116397B2, “IL-IR-I binding polypeptide” (Swedish Orphan Biovitrum AB (publ), priority 2017, dated 2024).
